ChEMBL document CHEMBL2157914, “Synthesis, anti-inflammatory and antimicrobial evaluation of novel 1-acetyl-3,5-diaryl-4,5-dihydro (1H) pyrazole derivatives bearing urea, thiourea and sulfonamide moieties” (2012)
In brackets after ≈: the same amount, converted by molar mass. Activity calls are given as the source filed them. The calls are words filed in the database; no cut-off is given here.

Legend:
THP-1 [1] = assay: Antiinflammatory activity in human THP1 cells assessed as inhibition of LPS-stimulated TNFalpha production at 10 uM incubated for 30 mins prior to LPS-challenge measured 24 hrs post LPS challenge by ELISA; format: functional
THP-1 [2] = assay: Antiinflammatory activity in human THP1 cells assessed as inhibition of LPS-stimulated IL-6 production at 10 uM incubated for 30 mins prior to LPS-challenge measured 24 hrs post LPS-challenge by ELISA; format: functional
Staphylococcus aureus [3] = assay: Antibacterial activity against Staphylococcus aureus MTCC 96 after 24 hrs by agar well diffusion method; format: functional; settings: MTCC 96, 24 h
Bacillus subtilis [4] = assay: Antibacterial activity against Bacillus subtilis MTCC 441 after 24 hrs by agar well diffusion method; format: functional; settings: MTCC 441, 24 h
Escherichia coli = assay: Antibacterial activity against Escherichia coli MTCC 443 after 24 hrs by agar well diffusion method; format: functional; settings: MTCC 443, 24 h
Salmonella typhimurium [5] = assay: Antibacterial activity against Salmonella typhimurium MTCC 98 after 24 hrs by agar well diffusion method; format: functional, Salmonella enterica subsp. enterica serovar Typhimurium; settings: Salmonella enterica, MTCC 98, 24 h
Candida albicans = assay: Antifungal activity against Candida albicans MTCC 227 after 2 to 3 days by agar well diffusion method; format: functional
Aspergillus niger [6] = assay: Antifungal activity against Aspergillus niger MTCC 281 after 2 to 3 days by agar well diffusion method; format: functional
Aspergillus flavus [7] = assay: Antifungal activity against Aspergillus flavus MTCC 277 after 2 to 3 days by agar well diffusion method; format: functional
Fusarium solani [8] = assay: Antifungal activity against Fusarium solani MTCC 350 up to 200 ug/mL after 2 to 3 days by agar well diffusion method; format: functional, organism-based
Fusarium solani [9] = assay: Antifungal activity against Fusarium solani MTCC 350 after 2 to 3 days by agar well diffusion method; format: functional
Staphylococcus aureus [10] = assay: Antibacterial activity against Staphylococcus aureus MTCC 96 up to 200 ug/mL after 24 hrs by agar well diffusion method; format: functional, organism-based
Bacillus subtilis [11] = assay: Antibacterial activity against Bacillus subtilis MTCC 441 up to 200 ug/mL after 24 hrs by agar well diffusion method; format: functional, organism-based
Salmonella typhimurium [12] = assay: Antibacterial activity against Salmonella typhimurium MTCC 98 up to 200 ug/mL after 24 hrs by agar well diffusion method; format: functional, organism-based; settings: Salmonella enterica subsp. enterica serovar Typhimurium
Aspergillus niger [13] = assay: Antifungal activity against Aspergillus niger MTCC 281 up to 200 ug/mL after 2 to 3 days by agar well diffusion method; format: functional, organism-based
Aspergillus flavus [14] = assay: Antifungal activity against Aspergillus flavus MTCC 277 up to 200 ug/mL after 2 to 3 days by agar well diffusion method; format: functional, organism-based

| MIC (Staphylococcus aureus [3]) [µg/mL] | MIC (Bacillus subtilis [4]) [µg/mL] | MIC (Escherichia coli) [µg/mL] | MIC (Salmonella typhimurium [5]) [µg/mL] | MIC (Candida albicans) [µg/mL] | MIC (Aspergillus niger [6]) [µg/mL] | MIC (Aspergillus flavus [7]) [µg/mL] | MIC (Fusarium solani [9]) [µg/mL] | SMILES | inhibition at 10 µM (THP-1 [1]) [%] | inhibition at 10 µM (THP-1 [2]) [%] | Activity (Fusarium solani [8]) | Activity (Staphylococcus aureus [10]) | Activity (Bacillus subtilis [11]) | Activity (Salmonella typhimurium [12]) | Activity (Aspergillus niger [13]) | Activity (Aspergillus flavus [14]) |
| --- | --- | --- | --- | --- | --- | --- | --- | --- | --- | --- | --- | --- | --- | --- | --- | --- |
| 90 (≈ 244 µM) | 50 (≈ 135 µM) | 65 (≈ 176 µM) | 90 (≈ 244 µM) | 90 (≈ 244 µM) | 90 (≈ 244 µM) | 90 (≈ 244 µM) |  | COc1ccc(C2=NN(C(C)=O)C(c3ccc([N+](=O)[O-])cc3)C2)cc1OC (configuration not stated) | 0 | 0 | inactive |  |  |  |  |  |
| 30 (≈ 53.7 µM) | 65 (≈ 116 µM) | 30 (≈ 53.7 µM) | 30 (≈ 53.7 µM) | 25 (≈ 44.8 µM) | 15 (≈ 26.9 µM) | 40 (≈ 71.6 µM) | 15 (≈ 26.9 µM) | COc1ccc(C2=NN(C(C)=O)C(c3ccc(NS(=O)(=O)c4ccc(Br)cc4)cc3)C2)cc1OC (configuration not stated) | 0 | 0 |  |  |  |  |  |  |
|  |  |  |  | 20 (≈ 48.1 µM) | 15 (≈ 36 µM) | 20 (≈ 48.1 µM) | 15 (≈ 36 µM) | Clc1ccc(COC(Cn2ccnc2)c2ccc(Cl)cc2Cl)c(Cl)c1 (configuration not stated) [MICONAZOLE] |  |  |  |  |  |  |  |  |
| 20 (≈ 35.5 µM) | 45 (≈ 79.9 µM) | 15 (≈ 26.6 µM) | 65 (≈ 115 µM) | 45 (≈ 79.9 µM) | 25 (≈ 44.4 µM) | 20 (≈ 35.5 µM) | 35 (≈ 62.1 µM) | COc1ccc(C2=NN(C(C)=O)C(c3ccc(NS(=O)(=O)c4ccc(OC(F)(F)F)cc4)cc3)C2)cc1OC (configuration not stated) | 8 | 30 |  |  |  |  |  |  |
|  |  | 90 (≈ 178 µM) |  | 90 (≈ 178 µM) |  |  | 75 (≈ 149 µM) | COc1ccccc1NC(=S)Nc1ccc(C2CC(c3ccc(OC)c(OC)c3)=NN2C(C)=O)cc1 (configuration not stated) | 0 | 0 |  | inactive | inactive | inactive | inactive | inactive |
| 80 (≈ 159 µM) | 65 (≈ 129 µM) | 90 (≈ 178 µM) | 90 (≈ 178 µM) | 65 (≈ 129 µM) | 40 (≈ 79.3 µM) | 70 (≈ 139 µM) | 80 (≈ 159 µM) | COc1ccc(C2=NN(C(C)=O)C(c3ccc(NS(=O)(=O)c4ccccc4C#N)cc3)C2)cc1OC (configuration not stated) | 10 | 31 |  |  |  |  |  |  |
| 60 (≈ 120 µM) | 35 (≈ 70.1 µM) | 30 (≈ 60 µM) | 45 (≈ 90.1 µM) | 55 (≈ 110 µM) | 20 (≈ 40 µM) | 35 (≈ 70.1 µM) | 20 (≈ 40 µM) | COc1ccc(C2=NN(C(C)=O)C(c3ccc(NC(=S)Nc4ccc(C#N)cc4)cc3)C2)cc1OC (configuration not stated) | 0 | 21 |  |  |  |  |  |  |
| 75 (≈ 142 µM) | 90 (≈ 171 µM) | 60 (≈ 114 µM) | 90 (≈ 171 µM) | 80 (≈ 152 µM) | 90 (≈ 171 µM) | 80 (≈ 152 µM) | 75 (≈ 142 µM) | COc1ccc(C2=NN(C(C)=O)C(c3ccc(NC(=O)Nc4ccccc4C(F)(F)F)cc3)C2)cc1OC (configuration not stated) | 61 | 80 |  |  |  |  |  |  |
| 30 (≈ 59.9 µM) | 40 (≈ 79.9 µM) | 30 (≈ 59.9 µM) | 55 (≈ 110 µM) | 20 (≈ 40 µM) | 40 (≈ 79.9 µM) | 20 (≈ 40 µM) | 20 (≈ 40 µM) | COc1ccc(C2=NN(C(C)=O)C(c3ccc(NC(=O)Nc4ccc(C(C)C)cc4)cc3)C2)cc1OC (configuration not stated) | 11 | 16 |  |  |  |  |  |  |
| 55 (≈ 108 µM) | 20 (≈ 39.1 µM) | 20 (≈ 39.1 µM) | 40 (≈ 78.2 µM) | 30 (≈ 58.6 µM) | 60 (≈ 117 µM) | 20 (≈ 39.1 µM) | 20 (≈ 39.1 µM) | COc1ccc(C2=NN(C(C)=O)C(c3ccc(NS(=O)(=O)c4cc(F)ccc4C)cc3)C2)cc1OC (configuration not stated) | 0 | 0 |  |  |  |  |  |  |
| 60 (≈ 126 µM) | 80 (≈ 168 µM) | 45 (≈ 94.4 µM) | 80 (≈ 168 µM) | 80 (≈ 168 µM) | 80 (≈ 168 µM) | 80 (≈ 168 µM) | 90 (≈ 189 µM) | COc1ccc(C2=NN(C(C)=O)C(c3ccc(NC(=O)Nc4ccccc4F)cc3)C2)cc1OC (configuration not stated) | 85 | 93 |  |  |  |  |  |  |
| 55 (≈ 101 µM) | 40 (≈ 73.7 µM) | 40 (≈ 73.7 µM) | 60 (≈ 111 µM) | 40 (≈ 73.7 µM) | 75 (≈ 138 µM) | 30 (≈ 55.3 µM) | 60 (≈ 111 µM) | COc1ccc(C2=NN(C(C)=O)C(c3ccc(NC(=O)Nc4ccccc4OC(F)(F)F)cc3)C2)cc1OC (configuration not stated) | 58 | 75 |  |  |  |  |  |  |
| 90 (≈ 182 µM) | 90 (≈ 182 µM) | 75 (≈ 152 µM) | 90 (≈ 182 µM) | 70 (≈ 142 µM) | 90 (≈ 182 µM) | 90 (≈ 182 µM) | 65 (≈ 132 µM) | COc1ccc(C2=NN(C(C)=O)C(c3ccc(NS(=O)(=O)c4ccc(C)cc4)cc3)C2)cc1OC (configuration not stated) | 0 | 0 |  |  |  |  |  |  |
| 35 (≈ 62.4 µM) | 60 (≈ 107 µM) | 45 (≈ 80.2 µM) | 80 (≈ 143 µM) | 55 (≈ 98 µM) | 35 (≈ 62.4 µM) | 20 (≈ 35.7 µM) | 20 (≈ 35.7 µM) | COc1ccc(C2=NN(C(C)=O)C(c3ccc(NC(=O)Nc4ccc(C(F)(F)F)cc4Cl)cc3)C2)cc1OC (configuration not stated) | 3 | 8 |  |  |  |  |  |  |
| 55 (≈ 109 µM) | 90 (≈ 178 µM) | 70 (≈ 139 µM) | 90 (≈ 178 µM) | 80 (≈ 159 µM) | 95 (≈ 188 µM) | 95 (≈ 188 µM) |  | COc1cccc(NC(=S)Nc2ccc(C3CC(c4ccc(OC)c(OC)c4)=NN3C(C)=O)cc2)c1 (configuration not stated) | 11 | 26 |  |  |  |  |  |  |
| 30 (≈ 55.3 µM) | 20 (≈ 36.9 µM) | 25 (≈ 46.1 µM) | 45 (≈ 82.9 µM) | 25 (≈ 46.1 µM) | 35 (≈ 64.5 µM) | 20 (≈ 36.9 µM) | 20 (≈ 36.9 µM) | COc1ccc(C2=NN(C(C)=O)C(c3ccc(NC(=O)Nc4ccc(OC(F)(F)F)cc4)cc3)C2)cc1OC (configuration not stated) | 8 | 11 |  |  |  |  |  |  |
|  | 90 (≈ 287 µM) | 80 (≈ 255 µM) | 90 (≈ 287 µM) | 90 (≈ 287 µM) |  |  |  | COc1ccc(C(=O)/C=C/c2ccc([N+](=O)[O-])cc2)cc1OC | 0 | 0 | inactive | inactive |  |  | inactive | inactive |
| 90 (≈ 176 µM) | 90 (≈ 176 µM) | 90 (≈ 176 µM) | 90 (≈ 176 µM) | 90 (≈ 176 µM) |  |  |  | COc1ccc(C2=NN(C(C)=O)C(c3ccc(NC(=O)Nc4cccc(Cl)c4F)cc3)C2)cc1OC (configuration not stated) | 61 | 76 | inactive |  |  |  | inactive | inactive |
| 80 (≈ 162 µM) | 80 (≈ 162 µM) | 55 (≈ 112 µM) | 90 (≈ 183 µM) | 80 (≈ 162 µM) |  | 90 (≈ 183 µM) | 90 (≈ 183 µM) | COc1ccc(C2=NN(C(C)=O)C(c3ccc(NC(=S)Nc4ccccc4F)cc3)C2)cc1OC (configuration not stated) | 78 | 84 |  |  |  |  | inactive |  |
| 45 (≈ 89.2 µM) | 65 (≈ 129 µM) | 20 (≈ 39.6 µM) | 35 (≈ 69.4 µM) | 90 (≈ 178 µM) |  | 90 (≈ 178 µM) | 90 (≈ 178 µM) | COc1ccc(NC(=S)Nc2ccc(C3CC(c4ccc(OC)c(OC)c4)=NN3C(C)=O)cc2)cc1 (configuration not stated) | 3 | 10 |  |  |  |  | inactive |  |

| SMILES | MIC (Staphylococcus aureus [3]) [µg/mL] | MIC (Bacillus subtilis [4]) [µg/mL] | MIC (Escherichia coli) [µg/mL] | MIC (Salmonella typhimurium [5]) [µg/mL] | MIC (Candida albicans) [µg/mL] | MIC (Aspergillus niger [6]) [µg/mL] | MIC (Aspergillus flavus [7]) [µg/mL] | MIC (Fusarium solani [9]) [µg/mL] | inhibition at 10 µM (THP-1 [1]) [%] | inhibition at 10 µM (THP-1 [2]) [%] | Activity (Fusarium solani [8]) | Activity (Staphylococcus aureus [10]) | Activity (Bacillus subtilis [11]) | Activity (Salmonella typhimurium [12]) | Activity (Aspergillus niger [13]) | Activity (Aspergillus flavus [14]) |
| --- | --- | --- | --- | --- | --- | --- | --- | --- | --- | --- | --- | --- | --- | --- | --- | --- |
| O=C(O)c1cn(C2CC2)c2cc(N3CCNCC3)c(F)cc2c1=O [CIPROFLOXACIN] | 20 (≈ 60.4 µM) | 15 (≈ 45.3 µM) | 15 (≈ 45.3 µM) | 20 (≈ 60.4 µM) |  |  |  |  |  |  |  |  |  |  |  |  |
